Experimental data from patent US20190367516A1 (Bayer Pharma Aktiengesellschaft, priority 2015, published 2019).
Where two headings read alike, the source gives them in different places.

Target: T1, human M2 receptor (Homo sapiens, UniProt P08172)
T1 sequence (P08172 1-466): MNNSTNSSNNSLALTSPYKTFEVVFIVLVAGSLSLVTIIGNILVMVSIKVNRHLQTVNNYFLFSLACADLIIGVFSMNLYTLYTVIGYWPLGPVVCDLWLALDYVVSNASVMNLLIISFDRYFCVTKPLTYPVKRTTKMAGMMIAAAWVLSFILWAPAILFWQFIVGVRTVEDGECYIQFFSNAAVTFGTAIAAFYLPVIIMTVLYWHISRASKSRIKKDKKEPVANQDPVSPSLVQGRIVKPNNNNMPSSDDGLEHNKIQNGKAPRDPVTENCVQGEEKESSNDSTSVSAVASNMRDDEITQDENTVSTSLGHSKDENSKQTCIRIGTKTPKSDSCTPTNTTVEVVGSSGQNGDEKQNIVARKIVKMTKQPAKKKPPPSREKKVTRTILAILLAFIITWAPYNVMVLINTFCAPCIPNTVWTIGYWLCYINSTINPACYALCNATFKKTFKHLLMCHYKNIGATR
Conditions: for Emax: read-out: Efficiency, boosting of the acetylcholine effect at EC20 acetylcholine concentration

[1] = Receptor activity EC50, allosteric potency at EC20 acetylcholine, M2-GIRK1/4 reporter cells, in some cases mean of two or more determinations
[2] = Receptor activity EC50, M2-GIRK1/4 activation test, acetylcholine at EC20, allosteric potency, in some cases mean values from two or more determinations

SMILES	EC50 [1]	Emax (M2-GIRK1/4 reporter cells)	EC50 [2]	Efficiency (boosting of the acetylcholine effect at EC20 acetylcholine concentration, M2-GIRK1/4 reporter cells)
O=C(NC12CC(C1)C2)c1cn(-c2c(F)cc(F)cc2F)c2nc(N3CC(O)C4(CC4)C3)ccc2c1=O (racemic) [Example 626, N-(Bicyclo[1.1.1]pent-1-yl)-7-[7-hydroxy-5-azaspiro[2.4]hept-5-yl]-4-oxo-1-(2,4,6-trifluorophenyl)-1,4-dihydro-1,8-naphthyridine-3-carboxamide]	44 nM	93.5%	–	–
O=C(NC(C1CC1)C(F)(F)F)c1cn(-c2ccc(F)cc2F)c2nc(N3C[C@@H](O)CC3=O)ccc2c1=O (mixture of isomers) [Example 283]	–	–	40 nM	–
O=C(N[C@@H](C1CC1)C(F)(F)F)c1cn(-c2c(F)cc(F)cc2F)c2nc(N(CCO)CCO)ccc2c1=O [Example 664, 7-[Bis(2-hydroxyethyl)amino]-N-[(1S)-1-cyclopropyl-2,2,2-trifluoroethyl]-4-oxo-1-(2,4,6-trifluorophenyl)-1,4-dihydro-1,8-naphthyridine-3-carboxamide]	100 nM	98%	–	–
CN(CCF)c1ccc2c(=O)c(C(=O)NC3(C(F)(F)F)CC3)cn(-c3ccc(F)cc3F)c2n1 [Example 109, 1-(2,4-Difluorophenyl)-7-[(2-fluoroethyl)(methyl)amino]-4-oxo-N-[1-(trifluoromethyl)cyclopropyl]-1,4-dihydro-1,8-naphthyridine-3-carboxamide]	–	–	187 nM	–
O=C(NC12CC3CC(CC(C3)C1)C2)c1cn(-c2ccc(F)cc2F)c2nc(N3CCOCC3=O)ccc2c1=O [Example 172]	–	–	83 nM	–
CC(NC(=O)c1cn(-c2ccc(F)cc2F)c2nc(N3C[C@@H](O)CC3=O)ccc2c1=O)C(F)(F)C(F)(F)F (single isomer, unassigned) [Example 624]	140 nM	–	–	96.5%
CC[C@@H](NC(=O)c1cn(-c2c(F)cc(F)cc2F)c2nc(N3CCC(C)(O)C3)ccc2c1=O)C(F)(F)F (stereo partly drawn) [Example 324, 7-[3-Hydroxy-3-methylpyrrolidin-1-yl]-4-oxo-N-[(2R)-1,1,1-trifluorobutan-2-yl]-1-(2,4,6-trifluorophenyl)-1,4-dihydro-1,8-naphthyridine-3-carboxamide]	–	–	34 nM	–
CC[C@@H](NC(=O)c1cn(-c2c(F)cccc2F)c2nc(N3CCNC3=O)ccc2c1=O)C(F)(F)F [Example 638, 1-(2,6-Difluorophenyl)-4-oxo-7-(2-oxoimidazolidin-1-yl)-N-[(2R)-1,1,1-trifluorobutan-2-yl]-1,4-dihydro-1,8-naphthyridine-3-carboxamide]	63 nM	100%	–	–
O=C(NC12CC3CC(CC(F)(C3)C1)C2)c1cn(-c2ccc(F)cc2F)c2nc(N3CC[C@H](F)C3)ccc2c1=O [Example 62, 1-(2,4-Difluorophenyl)-7-[(3S,)-3-fluoropyrrolidin-1-yl]-N-(3-fluorotricyclo[3.3.1.1^3,7]dec-1-yl)-4-oxo-1,4-dihydro-1,8-naphthyridine-3-carboxamide]	–	–	17 nM	–
O=C(N[C@@H](C1CC1)C(F)(F)F)c1cn(-c2c(F)cc(F)cc2F)c2nc(N3CC(O)C4(CC4)C3)ccc2c1=O (single isomer, unassigned) [Example 601]	73 nM	100%	–	–
CCC(COC(F)(F)F)NC(=O)c1cn(-c2c(F)cc(F)cc2F)c2nc(N3CCNC3=O)ccc2c1=O (racemic) [Example 609, 4-Oxo-7-(2-oxoimidazolidin-1-yl)-N-[1-(trifluoromethoxy)butan-2-yl]-1-(2,4,6-trifluorophenyl)-1,4-dihydro-1,8-naphthyridine-3-carboxamide]	28 nM	99%	–	–
CC[C@H](NC(=O)c1cn(-c2c(F)cccc2F)c2nc(N3CCNC3=O)ccc2c1=O)C(F)(F)F [Example 637, 1-(2,6-Difluorophenyl)-4-oxo-7-(2-oxoimidazolidin-1-yl)-N-[(2)-1,1,1-trifluorobutan-2-yl]-1,4-dihydro-1,8-naphthyridine-3-carboxamide]	60 nM	93%	–	–
CC(C)C(NC(=O)c1cn(-c2ccc(F)cc2F)c2nc(N(C)C)ccc2c1=O)C(F)(F)F (racemic) [Example 150, rac-1-(2,4-Difluorophenyl)-7-(dimethylamino)-4-oxo-N-(1,1,1-trifluoro-3-methylbutan-2-yl)-1,4-dihydro-1,8-naphthyridine-3-carboxamide]	–	–	72 nM	–
CC(C)[C@H](C)NC(=O)c1cn(-c2c(F)cc(F)cc2F)c2nc(N3C[C@@H](O)[C@H](O)C3)ccc2c1=O [Example 472, 7-[(3R,4R)-3,4-Dihydroxypyrrolidin-1-yl]-N-[(2S)-3-methylbutan-2-yl]-4-oxo-1-(2,4,6-trifluorophenyl)-1,4-dihydro-1,8-naphthyridine-3-carboxamide]	29 nM	90%	–	–
O=C(NC12CC(C1)C2)c1cn(-c2c(F)cc(F)cc2F)c2nc(N3CC(O)C4(CC4)C3)ccc2c1=O (single isomer, unassigned) [Example 627, N-(Bicyclo[1.1.1]pent-1-yl)-7-[7-hydroxy-5-azaspiro[2.4]hept-5-yl]-4-oxo-1-(2,4,6-trifluorophenyl)-1,4-dihydro-1,8-naphthyridine-3-carboxamide]	140 nM	83.5%	–	–
COC(=O)N1CCN(c2ccc3c(=O)c(C(=O)NC45CC(C4)C5)cn(-c4c(F)cc(F)cc4F)c3n2)CC1 [Example 633, Methyl 4-[6-(bicyclo[1.1.1]pent-1-ylcarbamoyl)-5-oxo-8-(2,4,6-trifluorophenyl)-5,8-dihydro-1,8-naphthyridin-2-yl]piperazine-1-carboxylate]	52 nM	93.8%	–	–
N#CN1CCCN(c2ccc3c(=O)c(C(=O)N[C@@H](C4CC4)C(F)(F)F)cn(-c4c(F)cc(F)cc4F)c3n2)C1=O [Example 380, 7-(3-Cyano-2-oxotetrahydropyrimidin-1(2H)-yl)-N-[(1S)-1-cyclopropyl-2,2,2-trifluoroethyl]-4-oxo-1-(2,4,6-trifluorophenyl)-1,4-dihydro-1,8-naphthyridine-3-carboxamide]	–	–	46 nM	–
O=C(NC12CC3CC(CC(C3)C1)C2)c1cn(-c2ccc(F)cc2F)c2nc(N3CCCC(F)(F)C3)ccc2c1=O [Example 1, 1-(2,4-Difluorophenyl)-7-(3,3-difluoropiperidin-1-yl)-4-oxo-N-(tricyclo[3.3.1.1^3,7]dec-1-yl)-1,4-dihydro-1,8-naphthyridine-3-carboxamide]	–	–	14 nM	–
CC[C@@H](NC(=O)c1cn(-c2ccc(F)cc2F)c2nc(N3CCC(C)C3=O)ccc2c1=O)C(F)(F)F (stereo partly drawn) [Example 431, 1-(2,4-Difluorophenyl)-7-[3-methyl-2-oxopyrrolidin-1-yl]-4-oxo-N-[(2R)-1,1,1-trifluorobutan-2-yl]-1,4-dihydro-1,8-naphthyridine-3-carboxamide]	92 nM	98%	–	–
CC[C@@H](NC(=O)c1cn(-c2c(F)cccc2F)c2nc(N3CCC(C)(O)C3)ccc2c1=O)C(F)(F)F (single isomer, unassigned) [Example 277]	–	–	78 nM	–
CC[C@@H](NC(=O)c1cn(-c2ccc(F)cc2F)c2nc(N3CC(C)OC3=O)ccc2c1=O)C(F)(F)F (mixture of isomers) [Example 266, 1-(2,4-Difluorophenyl)-7-[5-methyl-2-oxo-1,3-oxazolidin-3-yl]-4-oxo-N-[(2R)-1,1,1-trifluorobutan-2-yl]-1,4-dihydro-1,8-naphthyridine-3-carboxamide]	–	–	743 nM	–
O=C(NCc1c(Cl)cccc1Cl)c1cn(-c2ccc(F)cc2F)c2nc(N3CCCS3(=O)=O)ccc2c1=O [Example 182, N-(2,6-Dichlorobenzyl)-1-(2,4-difluorophenyl)-7-(1,1-dioxido-1,2-thiazolidin-2-yl)-4-oxo-1,4-dihydro-1,8-naphthyridine-3-carboxamide]	–	–	182 nM	–
CC[C@@H](NC(=O)c1cn(-c2ccc(F)cc2F)c2nc(N3CC4CNC(=O)C4C3)ccc2c1=O)C(F)(F)F (single isomer, unassigned) [Example 222]	–	–	200 nM	–
O=C(NC12CC3CC(CC(C3)C1)C2)c1cn(-c2ccc(F)cc2F)c2nc(N3C[C@@H](O)CC3=O)ccc2c1=O [Example 170]	–	–	19 nM	–
O=C(Nc1c(Cl)cccc1Cl)c1cn(-c2ccc(F)cc2F)c2nc(N3C[C@@H](O)[C@@H](O)C3)ccc2c1=O [Example 651, N-(2,6-Dichlorophenyl)-1-(2,4-difluorophenyl)-7-[(3R,4S)-3,4-dihydroxypyrrolidin-1-yl]-4-oxo-1,4-dihydro-1,8-naphthyridine-3-carboxamide]	86 nM	95%	–	–
CN(C)c1ccc2c(=O)c(C(=O)NC3CC34CCCCC4)cn(-c3ccc(F)cc3Cl)c2n1 (stereo not shown) [Example 154, 1-(2-Chloro-4-fluorophenyl)-7-(dimethylamino)-4-oxo-N-(spiro[2.5]oct-1-yl)-1,4-dihydro-1,8-naphthyridine-3-carboxamide]	–	–	158 nM	–
CC[C@@H](NC(=O)c1cn(-c2ccc(F)cc2F)c2nc(N3C(=O)CCC3C)ccc2c1=O)C(F)(F)F (mixture of isomers) [Example 426, 1-(2,4-Difluorophenyl)-7-[2-methyl-5-oxopyrrolidin-1-yl]-4-oxo-N-[(2R)-1,1,1-trifluorobutan-2-yl]-1,4-dihydro-1,8-naphthyridine-3-carboxamide]	48 nM	92%	–	–
